Each molecule was assayed against T1, recombinant full-length human prolyl endopeptidase (PREP) (Homo sapiens, UniProt P48147) (assay: Biochemical human prolyl endopeptidase (PREP) assay with fluorescently labelled substrate). Details: substrate Z-Gly-Pro-AMC 50 μM, 32° C., 60 min; some as mean values from multiple independent determinations.
T1 construct: To recombinant full-length human prolyl endopeptidase (PREP, R&D-Systems, 4308-SE); purchased R&D-Systems 4308-SE
T1 sequence (P48147 1-710): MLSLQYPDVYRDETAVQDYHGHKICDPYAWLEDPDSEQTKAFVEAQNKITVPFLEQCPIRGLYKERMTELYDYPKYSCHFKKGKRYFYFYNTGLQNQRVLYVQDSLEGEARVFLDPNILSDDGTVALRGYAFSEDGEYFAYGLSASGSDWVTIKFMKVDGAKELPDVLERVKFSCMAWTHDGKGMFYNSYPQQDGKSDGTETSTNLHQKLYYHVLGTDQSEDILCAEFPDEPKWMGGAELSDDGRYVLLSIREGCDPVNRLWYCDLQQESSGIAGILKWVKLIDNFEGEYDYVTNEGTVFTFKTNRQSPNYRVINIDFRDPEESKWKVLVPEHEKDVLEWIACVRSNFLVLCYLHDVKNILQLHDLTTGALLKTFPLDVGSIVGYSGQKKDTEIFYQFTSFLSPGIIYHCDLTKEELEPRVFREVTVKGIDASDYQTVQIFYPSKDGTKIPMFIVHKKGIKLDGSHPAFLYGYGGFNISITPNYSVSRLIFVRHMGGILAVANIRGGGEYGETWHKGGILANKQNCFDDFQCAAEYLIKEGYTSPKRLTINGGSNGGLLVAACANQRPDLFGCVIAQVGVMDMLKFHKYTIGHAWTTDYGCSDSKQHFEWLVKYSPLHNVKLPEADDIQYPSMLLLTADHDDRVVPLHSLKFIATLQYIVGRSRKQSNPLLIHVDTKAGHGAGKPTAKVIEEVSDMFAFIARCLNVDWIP
Summary of the method: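 Initial rates of fluorescence increase from 50 μM Z-Gly-Pro-AMC cleavage (ex 360/em 465 nm, 60 min, 32° C) give percent PREP activity versus no-compound control, and IC50 is interpolated. Enzyme used at 0.4 nM (final, example) in Tris pH 7.5 with EDTA, GSH, BSA and Brij-35; compounds span 1 nM to 30 μM.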
An IC50 of 0.69 nM was found for `CC1CCC(C(=O)N2CC[C@H](F)C2)n2c1nn(Cc1ccc(F)c(Cl)c1)c2=O` (mixture of isomers) [Example 320, (5RS,8RS)-2-(3-Chloro-4-fluorobenzyl)-5-{[(3S)-3-fluoropyrrolidin-1-yl]carbonyl}-8-methyl-5,6,7,8-tetrahydro[1,2,4]triazolo[4,3-a]pyridin-3(2H)-one] in this work. An IC50 of 0.93 nM was found for `CC1CCC(C(=O)N2CC(F)C2)n2c1nn(Cc1ccc(F)c(Cl)c1)c2=O` (racemic) [Example 321, (5RS,8RS)-2-(3-Chloro-4-fluorobenzyl)-5-[(3-fluoroazetidin-1-yl)carbonyl]-8-methyl-5,6,7,8-tetrahydro[1,2,4]triazolo[4,3-a]pyridin-3(2H)-one] in this work. An IC50 of 0.94 nM was found for `CC1CCC(C(=O)N2C[C@@H](F)[C@@H](F)C2)n2c1nn(Cc1ccnc(C(F)(F)F)c1F)c2=O` (mixture of isomers) [Example 322, (5RS,8RS)-5-{[(3R,4S)-3,4-Difluoropyrrolidin-1-yl]carbonyl}-2-{[3-fluoro-2-(trifluoromethyl)pyridin-4-yl]methyl}-8-methyl-5,6,7,8-tetrahydro[1,2,4]triazolo[4,3-a]pyridin-3(2H)-one] in this work. An IC50 of 0.96 nM was found for `CC1CCC(C(=O)N2CCC(F)(F)C2)n2c1nn(Cc1ccc(F)c(Cl)c1)c2=O` (racemic) [Example 323, (5RS,8RS)-2-(3-Chloro-4-fluorobenzyl)-5-[(3,3-difluoropyrrolidin-1-yl)carbonyl]-8-methyl-5,6,7,8-tetrahydro[1,2,4]triazolo[4,3-a]pyridin-3(2H)-one] in this work. An IC50 of 1.2 nM was found for `CC1CCC(C(=O)N2C[C@@H](F)[C@@H](F)C2)n2c1nn(Cc1ccc(F)cc1F)c2=O` (mixture of isomers) [Example 324, (5RS,8RS)-2-(2,4-Difluorobenzyl)-5-{[(3R,4S)-3,4-difluoropyrrolidin-1-yl]carbonyl}-8-methyl-5,6,7,8-tetrahydro[1,2,4]triazolo[4,3-a]pyridin-3(2H)-one] in this work. An IC50 of 1.5 nM was found for `CC1CCC(C(=O)N2C[C@@H](F)[C@@H](F)C2)n2c1nn(Cc1ccc(C(F)(F)F)nc1)c2=O` (mixture of isomers) [Example 325, (5RS,8RS)-5-{[(3R,4S)-3,4-Difluoropyrrolidin-1-yl]carbonyl}-8-methyl-2-{[6-(trifluoromethyl)pyridin-3-yl]methyl}-5,6,7,8-tetrahydro[1,2,4]triazolo[4,3-a]pyridin-3(2H)-one] in this work. An IC50 of 1.5 nM was found for `CC1CCC(C(=O)N2CC[C@H](F)C2)n2c1nn(Cc1ccc(F)cc1F)c2=O` (mixture of isomers) [Example 326, (5RS,8RS)-2-(2,4-Difluorobenzyl)-5-{[(3S)-3-fluoropyrrolidin-1-yl]carbonyl}-8-methyl-5,6,7,8-tetrahydro[1,2,4]triazolo[4,3-a]pyridin-3(2H)-one] in this work. An IC50 of 1.9 nM was found for `CC1CCC(C(=O)N2CCC(F)(F)C2)n2c1nn(Cc1ccc(F)cc1F)c2=O` (racemic) [Example 327, (5RS,8RS)-2-(2,4-Difluorobenzyl)-5-[(3,3-difluoropyrrolidin-1-yl)carbonyl]-8-methyl-5,6,7,8-tetrahydro[1,2,4]triazolo[4,3-a]pyridin-3(2H)-one] in this work. An IC50 of 4.1 nM was found for `CC1CCC(C(=O)N2CC(F)C2)n2c1nn(Cc1ccc(C(F)(F)F)nc1)c2=O` (racemic) [Example 328, (5RS,8RS)-5-[(3-Fluoroazetidin-1-yl)carbonyl]-8-methyl-2-{[6-(trifluoromethyl)pyridin-3-yl]methyl}-5,6,7,8-tetrahydro[1,2,4]triazolo[4,3-a]pyridin-3(2H)-one] in this work. An IC50 of 4.3 nM was found for `CC1CCC(C(=O)N2CC(F)C2)n2c1nn(Cc1ccc(F)cc1F)c2=O` (racemic) [Example 329, (5RS,8RS)-2-(2,4-Difluorobenzyl)-5-[(3-fluoroazetidin-1-yl)carbonyl]-8-methyl-5,6,7,8-tetrahydro[1,2,4]triazolo[4,3-a]pyridin-3(2H)-one] in this work. An IC50 of 4.9 nM was found for `CC1CCC(C(=O)N2CCC(F)(F)C2)n2c1nn(Cc1ccc(C(F)(F)F)nc1)c2=O` (racemic) [Example 330, (5RS,8RS)-5-[(3,3-Difluoropyrrolidin-1-yl)carbonyl]-8-methyl-2-{[6-(trifluoromethyl)pyridin-3-yl]methyl}-5,6,7,8-tetrahydro[1,2,4]triazolo[4,3-a]pyridin-3(2H)-one] in this work. An IC50 of 0.68 nM was found for `CC1Cc2nn(Cc3ccc(F)c(Cl)c3)c(=O)n2C(C(=O)N2CCC(F)(F)C2)C1` (racemic) [Example 331, (5RS,7RS)-2-(3-Chloro-4-fluorobenzyl)-5-[(3,3-difluoropyrrolidin-1-yl)carbonyl]-7-methyl-5,6,7,8-tetrahydro[1,2,4]triazolo[4,3-a]pyridin-3(2H)-one] in this work. An IC50 of 3.9 nM was found for `CC1Cc2nn(Cc3ccc(C(F)(F)F)nc3)c(=O)n2C(C(=O)N2CCC(F)(F)C2)C1` (racemic) [Example 332, (5RS,7RS)-5-[(3,3-Difluoropyrrolidin-1-yl)carbonyl]-7-methyl-2-{[6-(trifluoromethyl)pyridin-3-yl]methyl}-5,6,7,8-tetrahydro[1,2,4]triazolo[4,3-a]pyridin-3(2H)-one] in this work. An IC50 of 2.1 nM was found for `CC1Cc2nn(Cc3ccnc(C(F)(F)F)c3F)c(=O)n2C(C(=O)N2C[C@@H](F)[C@@H](F)C2)C1` (mixture of isomers) [Example 333, (5RS,7RS)-5-{[(3R,4S)-3,4-Difluoropyrrolidin-1-yl]carbonyl}-2-{[3-fluoro-2-(trifluoromethyl)pyridin-4-yl]methyl}-7-methyl-5,6,7,8-tetrahydro[1,2,4]triazolo[4,3-a]pyridin-3(2H)-one] in this work. An IC50 of 2.95 nM was found for `CC1Cc2nn(Cc3ccnc(C(F)(F)F)c3F)c(=O)n2C(C(=O)N2CCC(F)(F)C2)C1` (racemic) [Example 334, (5RS,7RS)-5-[(3,3-Difluoropyrrolidin-1-yl)carbonyl]-2-{[3-fluoro-2-(trifluoromethyl)pyridin-4-yl]methyl}-7-methyl-5,6,7,8-tetrahydro[1,2,4]triazolo[4,3-a]pyridin-3(2H)-one] in this work. An IC50 of 1.05 nM was found for `CC1Cc2nn(Cc3ccnc(C(F)(F)F)c3F)c(=O)n2C(C(=O)N2CC(F)C2)C1` (racemic) [Example 335, (5RS,7RS)-5-[(3-Fluoroazetidin-1-yl)carbonyl]-2-{[3-fluoro-2-(trifluoromethyl)pyridin-4-yl]methyl}-7-methyl-5,6,7,8-tetrahydro[1,2,4]triazolo[4,3-a]pyridin-3(2H)-one] in this work. An IC50 of 0.66 nM was found for `CC1Cc2nn(Cc3ccc(C(F)(F)F)nc3)c(=O)n2C(C(=O)N2C[C@@H](F)[C@@H](F)C2)C1` (mixture of isomers) [Example 336, (5RS,7RS)-5-{[(3R,4S)-3,4-Difluoropyrrolidin-1-yl]carbonyl}-7-methyl-2-{[6-(trifluoromethyl)pyridin-3-yl]methyl}-5,6,7,8-tetrahydro[1,2,4]triazolo[4,3-a]pyridin-3(2H)-one] in this work. An IC50 of 0.49 nM was found for `CC1Cc2nn(Cc3ccc(F)c(Cl)c3)c(=O)n2C(C(=O)N2C[C@@H](F)[C@@H](F)C2)C1` (mixture of isomers) [Example 339, (5RS,7RS)-2-(3-Chloro-4-fluorobenzyl)-5-{[(3R,4S)-3,4-difluoropyrrolidin-1-yl]carbonyl}-7-methyl-5,6,7,8-tetrahydro[1,2,4]triazolo[4,3-a]pyridin-3(2H)-one] in this work. An IC50 of 0.48 nM was found for `CC1Cc2nn(Cc3ccc(F)c(Cl)c3)c(=O)n2C(C(=O)N2CC(F)C2)C1` (racemic) [Example 340, (5RS,7RS)-2-(3-Chloro-4-fluorobenzyl)-5-[(3-fluoroazetidin-1-yl)carbonyl]-7-methyl-5,6,7,8-tetrahydro[1,2,4]triazolo[4,3-a]pyridin-3(2H)-one] in this work. An IC50 of 3.7 nM was found for `CC1Cc2nn(Cc3ccc(C(F)(F)F)nc3)c(=O)n2C(C(=O)N2CC(F)C2)C1` (racemic) [Example 341, (5RS,7RS)-5-[(3-Fluoroazetidin-1-yl)carbonyl]-7-methyl-2-{[6-(trifluoromethyl)pyridin-3-yl]methyl}-5,6,7,8-tetrahydro[1,2,4]triazolo[4,3-a]pyridin-3(2H)-one] in this work. An IC50 of 189 nM was found for `O=C(C1CCCc2nn(Cc3ncc(C(F)(F)F)cc3Cl)c(=O)n21)N1CC(O)C1` (racemic) [Example 403, (5RS)-2-{[3-Chloro-5-(trifluoromethyl)pyridin-2-yl]methyl}-5-[(3-hydroxyazetidin-1-yl)carbonyl]-5,6,7,8-tetrahydro[1,2,4]triazolo[4,3-a]pyridin-3(2H)-one] in this work. An IC50 of 18 nM was found for `Cc1cc(Cn2nc3n(c2=O)C(C(=O)N2CC(F)C2)CCC3)on1` (racemic) [Example 417, (5RS)-5-[(3-Fluoroazetidin-1-yl)carbonyl]-2-[(3-methyl-1,2-oxazol-5-yl)methyl]-5,6,7,8-tetrahydro[1,2,4]triazolo[4,3-a]pyridin-3(2H)-one] in this work. An IC50 of 4.1 nM was found for `Cc1ccc(C(C)n2nc3n(c2=O)[C@H](C(=O)N2CCCC2)CCC3)cc1` (mixture of isomers) [Example 502, (5S)-2-[(1 RS)-1-(4-Methylphenyl)ethyl]-5-(pyrrolidin-1-ylcarbonyl)-5,6,7,8-tetrahydro[1,2,4]triazolo[4,3-a]pyridin-3(2H)-one] in this work.
